The text below walks through data of patent US9708314B2, “Heterocyclic amide compound” (NISSAN CHEMICAL INDUSTRIES, LTD., priority 2013, dated 2017).

Holding throughout (type): in vivo
For one series, the system named is Zea mays. Description: Test Example 4: effect on crop by application to foliage (diluvial soil, plastic box). The following applies: foliage application, 320 g/ha. Summed up:
(§1)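 Seeds sown in sterilized diluvial soil, covered ~1.5 cm, grown 14 days in greenhouse at 25° C. to 30° C. Emulsion formulation diluted in water to set rate (g/ha) and sprayed onto stems and leaves. Effect scored visually 3 weeks later on 0–5 scale (5 = ≥90% herbicidal ratio, 0 = ≤5%).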

Series [1] has as its system directly sowed Oryza sativa. The description is as above. The following applies: foliage application, 320 g/ha. Summed up:
as §1

Series [2] deals with Beta vulgaris ssp. vulgaris. The description is as above. The following applies: foliage application, 320 g/ha. Summed up: as §1
In another series the test system is Brassica campestris L. Described as above. The following applies: foliage application, 320 g/ha. Summed up:
as §1

In another series the test system is Glycine max. The description is as above. The following applies: foliage application, 320 g/ha. An outline of the steps: as §1
A further series relates to Triticum aestivum. The description is as above. The following applies: foliage application, 320 g/ha. An outline of the steps:
as §1

The next series concerns Veronica persica. Description: Test Example 4: herbicidal effect by application to foliage (diluvial soil, plastic box). The following applies: foliage application, 320 g/ha. Summed up:
as §1

The test system of another series is Amaranthus retroflexus. The series is described as above. The following applies: foliage application, 320 g/ha. Summed up: as §1
The next series deals with Chenopodium album. The series is described as above. The following applies: foliage application, 320 g/ha. Summed up: as §1
For a further series, the system named is Galium spurium. The series is described as above. The following applies: foliage application, 320 g/ha. An outline of the steps:
as §1

The next series deals with Abutilon theophrasti. The series is described as above. The following applies: foliage application, 320 g/ha. An outline of the steps: as §1
A further series has as its system Setaria viridis. Described as above. The following applies: foliage application, 320 g/ha. Summed up: as §1
In a further series the test system is Apera spica-venti. The series is described as above. The following applies: foliage application, 320 g/ha. An outline of the steps: as §1
The test system of a further series is Digitaria ciliaris. The series is described as above. The following applies: foliage application, 320 g/ha. An outline of the steps: as §1
The test system of the next series is Avena fatua. The description is as above. The following applies: foliage application, 320 g/ha. An outline of the steps:
as §1

In series [3] the test system is Echinochloa crus-galli var. crus-galli. Described as above. The following applies: foliage application, 320 g/ha. Summed up:
as §1

The next series has as its system Alopecurus myosuroides. The series is described as above. The following applies: foliage application, 320 g/ha. Summed up: as §1
A further series relates to Lolium multiflorum Lam. Described as above. The following applies: foliage application, 320 g/ha. Summed up: as §1
A further series deals with Stellaria media. Described as above. The following applies: foliage application, 320 g/ha. An outline of the steps:
as §1

For another series, the system named is Scirpus juncoides. The experiment in a line: Test Example 1: herbicidal activity, application before weed generation in submerged conditions. The following applies: Application herbicide amount 320 g/ha; Seventeenth Table. An outline of the steps:
(§2)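 Pre-emergence water-surface application under 4 cm flooding, same day as sowing, with rice transplanted at 2.5 leaf stage. Dose given as g/ha. Plants grown at 25° C. to 30° C. and rated three weeks later on a 0 (≤5%) to 5 (≥90%) herbicidal-ratio scale.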

Series [4] concerns Echinochloa oryzacola Vasing. Described as above. The following applies: Application herbicide amount 320 g/ha; Seventeenth Table. An outline of the steps:
as §2

The subject of another series is Monochoria vaginalis. The series is described as above. The following applies: Application herbicide amount 320 g/ha; Seventeenth Table. An outline of the steps:
as §2

For `CCOC(=O)Cc1nnc2c(C(=O)Nc3nnnn3C)ccc(C(F)(F)F)n12` [2-040], the “b (Zea mays) effect on crop grade” value with Zea mays is 4 (Herbicidal ratio of 70% or more and less than 90%). In addition, in series [1], the “d (directly sowed Oryza sativa) effect on crop grade” value was 4 (Herbicidal ratio of 70% or more and less than 90%). Further, the “f (Beta vulgaris ssp. vulgaris) effect on crop grade” value in [2] is 5 (Herbicidal ratio of 90% or more (almost completely withered)). The “g (Brassica campestris L.) effect on crop grade” value in the series with Brassica campestris L. is 3 (Herbicidal ratio of 40% or more and less than 70%). Besides, the “c (Glycine max) effect on crop grade” value in the series on Glycine max is 1 (Herbicidal ratio of 5% or more and less than 20%). The “e (Triticum aestivum) effect on crop grade” value (from here on “e (Triticum aestivum) effect”) with Triticum aestivum was 2 (Herbicidal ratio of 20% or more and less than 40%). In addition, the “R (Veronica persica) herbicidal effect grade” value with Veronica persica is 5 (Herbicidal ratio of 90% or more (almost completely withered)). Also, in the series with Amaranthus retroflexus, the “N (Amaranthus retroflexus) herbicidal effect grade” value was 5 (Herbicidal ratio of 90% or more (almost completely withered)). The “O (Chenopodium album) herbicidal effect grade” value with Chenopodium album was 5 (Herbicidal ratio of 90% or more (almost completely withered)). For the same compound, the “Q (Galium spurium) herbicidal effect grade” value in the series with Galium spurium is 4 (Herbicidal ratio of 70% or more and less than 90%). The “M (Abutilon theophrasti) herbicidal effect grade” value in the series on Abutilon theophrasti is reported as 5 (Herbicidal ratio of 90% or more (almost completely withered)). In the series on Setaria viridis, the “G (Setaria viridis) herbicidal effect grade” value is 3 (Herbicidal ratio of 40% or more and less than 70%). The “L (Apera spica-venti.) herbicidal effect grade” value with Apera spica-venti. was 3 (Herbicidal ratio of 40% or more and less than 70%). In addition, in the series with Digitaria ciliaris, the “F (Digitaria ciliaris) herbicidal effect grade” value is listed as 5 (Herbicidal ratio of 90% or more (almost completely withered)). The “I (Avena fatua) herbicidal effect grade” value in the series on Avena fatua was 3 (Herbicidal ratio of 40% or more and less than 70%). Besides, the “H (Echinochloa crus-galli var. crus-galli) herbicidal effect grade” value in series [3] is given as 5 (Herbicidal ratio of 90% or more (almost completely withered)). For the same compound, in the series on Alopecurus myosuroides, the “J (Alopecurus myosuroides) herbicidal effect grade” value is 1 (Herbicidal ratio of 5% or more and less than 20%). Moreover, the “K (Lolium multiflorum Lam.) herbicidal effect grade” value in the series on Lolium multiflorum Lam. was 1 (Herbicidal ratio of 5% or more and less than 20%). In addition, the “P (Stellaria media) herbicidal effect grade” value in the series with Stellaria media is recorded as 5 (Herbicidal ratio of 90% or more (almost completely withered)). In addition, the “B: Scirpus juncoides (herbicidal effect grade)” value (“B: Scirpus juncoides” for short) in the series with Scirpus juncoides was 4 (Herbicidal ratio of 70% or more and less than 90%). For the same compound, in series [4], the “A: Echinochloa oryzicola Vasing. (herbicidal effect grade)” value was 4 (Herbicidal ratio of 70% or more and less than 90%). For the same compound, in the series with Monochoria vaginalis, the “C: Monochoria vaginalis (herbicidal effect grade)” value (“C: Monochoria vaginalis” for short) was 4 (Herbicidal ratio of 70% or more and less than 90%).
Take `CC(C)c1nnc2c(C(=O)Nc3nnnn3C)ccc(C(F)F)n12` [2-047]: in the series on Zea mays, the “b (Zea mays) effect on crop grade” value was 3 (Herbicidal ratio of 40% or more and less than 70%). Further, the “d (directly sowed Oryza sativa) effect on crop grade” value in series [1] is 3 (Herbicidal ratio of 40% or more and less than 70%). Moreover, the “f (Beta vulgaris ssp. vulgaris) effect on crop grade” value in series [2] is recorded as 5 (Herbicidal ratio of 90% or more (almost completely withered)). Also, the “g (Brassica campestris L.) effect on crop grade” value in the series with Brassica campestris L. was 3 (Herbicidal ratio of 40% or more and less than 70%). Besides, the “c (Glycine max) effect on crop grade” value with Glycine max is recorded as 0 (Herbicidal ratio of 5% or less (almost no effect)). For the same compound, the “e (Triticum aestivum) effect” value with Triticum aestivum is 3 (Herbicidal ratio of 40% or more and less than 70%). In addition, the “R (Veronica persica) herbicidal effect grade” value in the series on Veronica persica is 5 (Herbicidal ratio of 90% or more (almost completely withered)). In addition, the “N (Amaranthus retroflexus) herbicidal effect grade” value in the series on Amaranthus retroflexus is 5 (Herbicidal ratio of 90% or more (almost completely withered)). For the same compound, the “O (Chenopodium album) herbicidal effect grade” value in the series on Chenopodium album was 5 (Herbicidal ratio of 90% or more (almost completely withered)). Also, the “Q (Galium spurium) herbicidal effect grade” value in the series with Galium spurium is 3 (Herbicidal ratio of 40% or more and less than 70%). Also, the “M (Abutilon theophrasti) herbicidal effect grade” value with Abutilon theophrasti is recorded as 5 (Herbicidal ratio of 90% or more (almost completely withered)). For the same compound, the “G (Setaria viridis) herbicidal effect grade” value in the series with Setaria viridis was 3 (Herbicidal ratio of 40% or more and less than 70%). The “L (Apera spica-venti.) herbicidal effect grade” value in the series with Apera spica-venti. is 3 (Herbicidal ratio of 40% or more and less than 70%). The “F (Digitaria ciliaris) herbicidal effect grade” value in the series on Digitaria ciliaris is on record as 5 (Herbicidal ratio of 90% or more (almost completely withered)). In addition, the “I (Avena fatua) herbicidal effect grade” value with Avena fatua was 3 (Herbicidal ratio of 40% or more and less than 70%). In addition, the “H (Echinochloa crus-galli var. crus-galli) herbicidal effect grade” value in series [3] is 5 (Herbicidal ratio of 90% or more (almost completely withered)). The “J (Alopecurus myosuroides) herbicidal effect grade” value in the series on Alopecurus myosuroides is 1 (Herbicidal ratio of 5% or more and less than 20%). Further, the “K (Lolium multiflorum Lam.) herbicidal effect grade” value in the series with Lolium multiflorum Lam. was 1 (Herbicidal ratio of 5% or more and less than 20%). For the same compound, the “P (Stellaria media) herbicidal effect grade” value with Stellaria media was 4 (Herbicidal ratio of 70% or more and less than 90%). The “B: Scirpus juncoides” value with Scirpus juncoides was 4 (Herbicidal ratio of 70% or more and less than 90%). Besides, the “A: Echinochloa oryzicola Vasing. (herbicidal effect grade)” value in series [4] is 5 (Herbicidal ratio of 90% or more (almost completely withered)). In addition, in the series with Monochoria vaginalis, the “C: Monochoria vaginalis” value was 5 (Herbicidal ratio of 90% or more (almost completely withered)).
Take `Cn1nnnc1NC(=O)c1ccc(C(F)(F)F)n2c(S(C)(=O)=O)nnc12` [2-037]: the “b (Zea mays) effect on crop grade” value in the series on Zea mays was 5 (Herbicidal ratio of 90% or more (almost completely withered)). The “d (directly sowed Oryza sativa) effect on crop grade” value in series [1] was 4 (Herbicidal ratio of 70% or more and less than 90%). In addition, in series [2], the “f (Beta vulgaris ssp. vulgaris) effect on crop grade” value is given as 5 (Herbicidal ratio of 90% or more (almost completely withered)). The “g (Brassica campestris L.) effect on crop grade” value in the series with Brassica campestris L. is 5 (Herbicidal ratio of 90% or more (almost completely withered)). The “c (Glycine max) effect on crop grade” value in the series with Glycine max is on record as 5 (Herbicidal ratio of 90% or more (almost completely withered)). Also, the “e (Triticum aestivum) effect” value in the series with Triticum aestivum is recorded as 5 (Herbicidal ratio of 90% or more (almost completely withered)). Further, the “R (Veronica persica) herbicidal effect grade” value with Veronica persica was 5 (Herbicidal ratio of 90% or more (almost completely withered)). Moreover, the “N (Amaranthus retroflexus) herbicidal effect grade” value in the series with Amaranthus retroflexus is 5 (Herbicidal ratio of 90% or more (almost completely withered)). The “O (Chenopodium album) herbicidal effect grade” value in the series with Chenopodium album was 5 (Herbicidal ratio of 90% or more (almost completely withered)). The “Q (Galium spurium) herbicidal effect grade” value in the series with Galium spurium was 5 (Herbicidal ratio of 90% or more (almost completely withered)). Besides, in the series on Abutilon theophrasti, the “M (Abutilon theophrasti) herbicidal effect grade” value is 5 (Herbicidal ratio of 90% or more (almost completely withered)). The “G (Setaria viridis) herbicidal effect grade” value in the series with Setaria viridis is listed as 5 (Herbicidal ratio of 90% or more (almost completely withered)). The “L (Apera spica-venti.) herbicidal effect grade” value in the series with Apera spica-venti. was 5 (Herbicidal ratio of 90% or more (almost completely withered)). Besides, the “F (Digitaria ciliaris) herbicidal effect grade” value in the series on Digitaria ciliaris is 5 (Herbicidal ratio of 90% or more (almost completely withered)). In the series on Avena fatua, the “I (Avena fatua) herbicidal effect grade” value was 5 (Herbicidal ratio of 90% or more (almost completely withered)). Besides, in [3], the “H (Echinochloa crus-galli var. crus-galli) herbicidal effect grade” value is given as 5 (Herbicidal ratio of 90% or more (almost completely withered)). Also, the “J (Alopecurus myosuroides) herbicidal effect grade” value in the series with Alopecurus myosuroides is given as 5 (Herbicidal ratio of 90% or more (almost completely withered)). In addition, the “K (Lolium multiflorum Lam.) herbicidal effect grade” value with Lolium multiflorum Lam. is reported as 5 (Herbicidal ratio of 90% or more (almost completely withered)). The “P (Stellaria media) herbicidal effect grade” value in the series with Stellaria media is 5 (Herbicidal ratio of 90% or more (almost completely withered)). Moreover, the “B: Scirpus juncoides” value with Scirpus juncoides is recorded as 5 (Herbicidal ratio of 90% or more (almost completely withered)). The “A: Echinochloa oryzicola Vasing. (herbicidal effect grade)” value in series [4] is 5 (Herbicidal ratio of 90% or more (almost completely withered)). Further, the “C: Monochoria vaginalis” value with Monochoria vaginalis is reported as 5 (Herbicidal ratio of 90% or more (almost completely withered)).
